SMILES strings stand for the structures.

Series [1] has as its target human BACE1 (Homo sapiens, UniProt P56817). The experiment in a line: BACE1 fluorescent kinetic assay (cleavage of peptide substrate WABC-6). The format is biochemical. As to conditions: 5 μM inhibitor; 10 nM enzyme, 25 μM substrate, pH 4.5, room temperature; read-out: BACE-1 % Inhibition at 5 μM. The protocol: Evaluation of BACE1 Binding Affinity of Test Compounds
Fluorescent Kinetic Assays
Final Assay Conditions: 10 nM human BACE1 (or 10 nM Murine BACE1, 1.5 nM human BACE2), 25 μM substrate (WABC-6, MW 1549.6, from AnaSpec), Buffer: 50 mM Na-Acetate, pH 4.5, 0.05% CHAPS, 25% PBS, room temperature. Na-Acetate was from Aldrich, Cat.# 24, 124-5, CHAPS was from Research Organics, Cat. # 1304C 1×, PBS was from Mediatech (Cellgro), Cat# 21-031-CV, peptide substrate AbzSEVNLDAEFRDpa was from AnaSpec, Peptide Name: WABC-6
Determination of stock substrate (AbzSEVNLDAEFRDpa) concentration: ˜25 mM stock solution is made in DMSO using the peptide weight and MW, and diluted to ˜25 μM (1:1000) in 1×PBS. Concentration is determined by absorbance at 354 nm using an extinction coefficient ε of 18172 M^−1cm^−1, the concentration of stock substrate is corrected, and the substrate stock stored in small aliquots in −80° C. [Substrate Stock]=ABS^354 nm*10^6/18172 (in […]) The extinction coefficient ε^354 nm was adapted from TACE peptide substrate, which had the same quencher-fluorophore pair. Determination of Stock Enzyme Concentration: the stock concentration of each enzyme is determined by absorbance at 280 nm using an ε of 64150 M^−1cm^−1 for hBACE1 and MuBACE1, 62870 M^−1cm^−1 for hBACE2 in 6 M Guanidinium Hydrochloride (from Research Organics, Cat. # 5134G-2), pH ˜6. The extinction coefficient ε^280 nm for each enzyme was calculated based on known amino acid composition and published extinction coefficients for Trp ([…]) and Tyr ([…]) residues (Anal. Biochem. 182, 319-326). Dilution and mixing steps: total reaction volume: 100 μL
2× inhibitor dilutions in buffer A (66.7 mM Na-Acetate, pH 4.5, 0.0667% CHAPS) were prepared,
4× enzyme dilution in buffer A (66.7 mM Na-Acetate, pH 4.5, 0.0667% CHAPS) were prepared,
100 μM substrate dilution in 1×PBS was prepared, and
50 μL 2× Inhibitor, 25 μL 100 μM substrate are added to each well of 96-well plate (from DYNEX Technologies, VWR #: 11311-046), immediately followed by 25 μL 4× enzyme (added to the inhibitor and substrate mix), and the fluorescence readings are initiated.
Fluorescence Readings: Readings at λex 320 nm and λem 420 nm are taken every 40 sec for 30 min at room temperature and the linear slope for substrate cleavage rate (vi) determined.
Calculation of % Inhibition: % Inhibition=100*(1−vi/v0) vi: substrate cleavage rate in the presence of inhibitor v0: substrate cleavage rate in the absence of inhibitor IC50 Determination: % Inhibition=((B*IC50^n)+(100*I0^n))/(IC50^n+I0^n) (Model # 39 from LSW Tool Bar in Excel where B is the % inhibition from the enzyme control, which should be close to 0.) % Inhibition is plotted vs. Inhibitor Concentration (I0) and the data fit to the above equation to obtain IC50 value and Hill number (n) for each compound. Testing at least 10 different inhibitor concentrations is preferred.

human BACE1, sequence (P56817 46-501): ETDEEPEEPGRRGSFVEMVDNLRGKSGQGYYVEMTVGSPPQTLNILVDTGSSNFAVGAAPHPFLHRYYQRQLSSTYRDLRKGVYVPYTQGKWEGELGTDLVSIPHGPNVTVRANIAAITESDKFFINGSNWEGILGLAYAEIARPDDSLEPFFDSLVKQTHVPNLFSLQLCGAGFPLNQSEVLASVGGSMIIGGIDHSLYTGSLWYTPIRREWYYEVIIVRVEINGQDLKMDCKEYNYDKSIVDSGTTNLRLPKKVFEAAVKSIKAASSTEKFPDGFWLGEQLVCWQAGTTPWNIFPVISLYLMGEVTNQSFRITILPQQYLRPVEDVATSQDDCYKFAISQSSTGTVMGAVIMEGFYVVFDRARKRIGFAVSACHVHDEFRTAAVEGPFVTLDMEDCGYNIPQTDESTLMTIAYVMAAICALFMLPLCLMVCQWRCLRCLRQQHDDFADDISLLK

As usually defined, the inhibition is the relative decrease from the control value, in per cent. Consider `N#CCCCOc1ccc2cc(-c3ccccc3Cl)n(Cc3cccc(N)n3)c2c1` [Example 8, 4-{[1-[(6-aminopyridin-2-yl)methyl]-2-(2-chlorophenyl)-1H-indol-6-yl]oxy}butanenitrile], for which the inhibition at 5 µM in series [1] was 79%.
One may read the melting point as the temperature, or range, at which the solid turns liquid. As for `Nc1cccc(Cn2c(-c3ccccc3Cl)cc3ccc(OCc4ccccc4)cc32)n1` [Example 9, 6-{[6-(benzyloxy)-2-(2-chlorophenyl)-1H-indol-1-yl]methyl}pyridin-2-amine], the melting point is 64 to 66 °C. Also, the inhibition at 5 µM in series [1] came out at 31.6%.
Consider `N#Cc1cccc(COc2ccc3cc(-c4ccccc4Cl)n(Cc4cccc(N)n4)c3c2)c1` [Example 10, 3-({[1-[(6-aminopyridin-2-yl)methyl]-2-(2-chlorophenyl)-1H-indol-6-yl]oxy}methyl)benzonitrile], for which the melting point lay in the range of 65 to 67 °C. The inhibition at 5 µM in series [1] is 58%.
In the same order, the values of `Nc1cccc(Cn2c(-c3ccccc3Cl)cc3ccc(OCc4cccc(F)c4)cc32)n1` [Example 11, 6-({2-(2-chlorophenyl)-6-[(3-fluorobenzyl)oxy]-1H-indol-1-yl}methyl)pyridin-2-amine] are 60 to 64 °C and 49.5%.
For `Nc1cccc(Cn2c(-c3ccccc3Cl)cc3ccc(OCc4cc(F)ccc4F)cc32)n1` [Example 12, 6-({2-(2-chlorophenyl)-6-[(2,5-difluorobenzyl)oxy]-1H-indol-1-yl}methyl)pyridin-2-amine] the same measures were 65 to 68 °C and 33.2%.
For `Nc1cccc(Cn2c(-c3ccccc3Cl)cc3ccc(OCc4cccc(C(F)(F)F)c4)cc32)n1` [Example 13, 6-[(2-(2-chlorophenyl)-6-{[3-(trifluoromethyl)benzyl]oxy}-1H-indol-1-yl)methyl]pyridin-2-amine] the same measures were 60 to 62 °C and 13.8%.
Compound `COc1cccc(COc2ccc3cc(-c4ccccc4Cl)n(Cc4cccc(N)n4)c3c2)c1` [Example 14, 6-({2-(2-chlorophenyl)-6-[(3-methoxybenzyl)oxy]-1H-indol-1-yl}methyl)pyridin-2-amine] returned a melting point of 67 to 69 °C. Also, the inhibition at 5 µM in series [1] is 36.3%.
For `CCCOc1ccc2cc(-c3ccccc3Cl)n(Cc3cccc(N)n3)c2c1` [Example 15, 6-{[2-(2-chlorophenyl)-6-propoxy-1H-indol-1-yl]methyl}pyridin-2-amine] the same measures were 128 to 130 °C and 38.6%.
In the same order, the values of `COc1ccc2cc(-c3ccccc3Cl)n(Cc3cccc(N)n3)c2c1` [Example 16, 6-{[2-(2-chlorophenyl)-6-methoxy-1H-indol-1-yl]methyl}pyridin-2-amine] are 174 to 176 °C and 30.1%.
In the same order, the values of `Nc1cccc(Cn2c(-c3ccccc3Cl)cc3ccc(Oc4cncnc4)cc32)n1` [Example 17, 6-{[2-(2-chlorophenyl)-6-(pyrimidin-5-yloxy)-1H-indol-1-yl]methyl}pyridin-2-amine] are 115 to 117 °C and 39.8%.
`Nc1cccc(Cn2c(-c3ccccc3Cl)cc3ccc(Br)cc32)n1` [Example 19, 6-{[6-Bromo-2-(2-chlorophenyl)-1H-indol-1-yl]methyl}pyridin-2-amine] showed a melting point of 189 to 191 °C. Besides, in series [1], the inhibition at 5 µM is 31.7%.
Regarding `Nc1cccc(Cn2c(-c3ccccc3Cl)cc3ccc(C#CCCO)cc32)n1` [Example 20, 4-{1-[(6-Aminopyridin-2-yl)methyl]-2-(2-chlorophenyl)-1H-indol-6-yl}but-3-yn-1-ol], the inhibition at 5 µM in series [1] amounted to 67.5%.
Still for that read-out and setting: as for `Nc1cccc(Cn2c(-c3ccccc3Cl)cc3ccc(C#CCCF)cc32)n1` [Example 21, 6-{[6-(4-fluorobutyn-1-yl)-2-(2-chlorophenyl)-1H-indol-1-yl]methyl}pyridin-2-amine], the figure is 56.6%; as for `Nc1cccc(Cn2c(-c3ccccc3Cl)cc3ccc(C#CCCCO)cc32)n1` [Example 22, 5-{1-[(6-Aminopyridin-2-yl)methyl]-2-(2-chlorophenyl)-1H-indol-6-yl}pent-4-yn-1-ol], 71.2%; as for `Nc1cccc(Cn2c(-c3ccccc3Cl)cc3ccc(C#CCCCCO)cc32)n1` [Example 23, 6-{1-[(6-Aminopyridin-2-yl)methyl]-2-(2-chlorophenyl)-1H-indol-6-yl}hex-5-yn-1-ol], 81.1%.
Regarding `Nc1cccc(Cn2c(-c3ccccc3Cl)cc3ccc(CCCCO)cc32)n1` [Example 24, 4-[1-(6-Aminopyridin-2-ylmethyl)-2-(2-chlorophenyl)-1H-indol-6-yl]butan-1-ol], the inhibition at 5 µM in series [1] is 71.8%.
`Nc1cccc(Cn2c(-c3ccccc3Cl)cc3ccc(CCCCCO)cc32)n1` [Example 25, 5-[1-(6-Aminopyridin-2-ylmethyl)-2-(2-chlorophenyl)-1H-indol-6-yl]pentan-1-ol]: the inhibition at 5 µM in series [1] is 77.3%.
On the same count and under the same terms, then `Nc1cccc(Cn2c(-c3ccccc3Cl)cc3ccc(CCCCCCO)cc32)n1` [Example 26, 6-[1-(6-Aminopyridin-2-ylmethyl)-2-(2-chlorophenyl)-1H-indol-6-yl]hexan-1-ol], with 107%.
`COCCC#Cc1ccc2cc(-c3ccccc3Cl)n(Cc3cccc(N)n3)c2c1` [Example 27, 6-{[2-(2-Chlorophenyl)-6-(4-methoxybut-1-yn-1-yl)-1H-indol-1-yl]methyl}pyridin-2-amine]: the inhibition at 5 µM in series [1] turned out to be 51%.
On the same count and under the same terms, as for `COCCCC#Cc1ccc2cc(-c3ccccc3Cl)n(Cc3cccc(N)n3)c2c1` [Example 28, 6-{[2-(2-Chlorophenyl)-6-(5-methoxypent-1-yn-1-yl)-1H-indol-1-yl]methyl}pyridin-2-amine], the figure is 53%.
On to `Nc1cccc(Cn2c(-c3ccccc3)cc3ccccc32)n1` [Example 30], for which the melting point fell in the range of 45 to 47 °C. Moreover, the inhibition at 5 µM in series [1] was found to be 24.6%.
In the case of `Nc1cccc(Cn2c(-c3ccccc3Cl)cc3ccc(C#CCCCF)cc32)n1` [Example 31, 6-{[2-(2-chlorophenyl)-6-(5-fluoropent-1-yn-1-yl)-1H-indol-1-yl]methyl}pyridin-2-amine], the inhibition at 5 µM in series [1] came out at 64.6%.
Same read-out and setting: then `Nc1cccc(Cn2c(-c3ccccc3Cl)cc3ccc(C#CCCCCF)cc32)n1` [Example 32, 6-{[2-(2-chlorophenyl)-6-(6-fluorohex-1-yn-1-yl)-1H-indol-1-yl]methyl}pyridin-2-amine], with 53.4%.

These data come from US20080076801A1, “Indolylalkylpyridin-2-amines for the inhibition of beta-secretase” (Wyeth, priority 2006, published 2008).
